Measured values: patent US10227350B2 (Gilead Sciences, Inc., priority 2016, dated 2019)

Biological target: PI3Kβ (Homo sapiens (Human), UniProt P42338)
Assay: TR-FRET enzymatic activity assay, PI3Kβ
Format: biochemical
Conditions: 2× Km ATP, 2 μM PIP2, 30 minutes at 25° C., read-out: IC50-PIP-Beta
How it was run: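 Purified recombinant heterodimeric PI3Kβ; PIP3 formation read by TR-FRET as competition with fluorescent tracer for GRP-1 PH domain binding. Compounds incubated 30 min at 25 °C.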

PI3Kβ, sequence (P42338 whole entry): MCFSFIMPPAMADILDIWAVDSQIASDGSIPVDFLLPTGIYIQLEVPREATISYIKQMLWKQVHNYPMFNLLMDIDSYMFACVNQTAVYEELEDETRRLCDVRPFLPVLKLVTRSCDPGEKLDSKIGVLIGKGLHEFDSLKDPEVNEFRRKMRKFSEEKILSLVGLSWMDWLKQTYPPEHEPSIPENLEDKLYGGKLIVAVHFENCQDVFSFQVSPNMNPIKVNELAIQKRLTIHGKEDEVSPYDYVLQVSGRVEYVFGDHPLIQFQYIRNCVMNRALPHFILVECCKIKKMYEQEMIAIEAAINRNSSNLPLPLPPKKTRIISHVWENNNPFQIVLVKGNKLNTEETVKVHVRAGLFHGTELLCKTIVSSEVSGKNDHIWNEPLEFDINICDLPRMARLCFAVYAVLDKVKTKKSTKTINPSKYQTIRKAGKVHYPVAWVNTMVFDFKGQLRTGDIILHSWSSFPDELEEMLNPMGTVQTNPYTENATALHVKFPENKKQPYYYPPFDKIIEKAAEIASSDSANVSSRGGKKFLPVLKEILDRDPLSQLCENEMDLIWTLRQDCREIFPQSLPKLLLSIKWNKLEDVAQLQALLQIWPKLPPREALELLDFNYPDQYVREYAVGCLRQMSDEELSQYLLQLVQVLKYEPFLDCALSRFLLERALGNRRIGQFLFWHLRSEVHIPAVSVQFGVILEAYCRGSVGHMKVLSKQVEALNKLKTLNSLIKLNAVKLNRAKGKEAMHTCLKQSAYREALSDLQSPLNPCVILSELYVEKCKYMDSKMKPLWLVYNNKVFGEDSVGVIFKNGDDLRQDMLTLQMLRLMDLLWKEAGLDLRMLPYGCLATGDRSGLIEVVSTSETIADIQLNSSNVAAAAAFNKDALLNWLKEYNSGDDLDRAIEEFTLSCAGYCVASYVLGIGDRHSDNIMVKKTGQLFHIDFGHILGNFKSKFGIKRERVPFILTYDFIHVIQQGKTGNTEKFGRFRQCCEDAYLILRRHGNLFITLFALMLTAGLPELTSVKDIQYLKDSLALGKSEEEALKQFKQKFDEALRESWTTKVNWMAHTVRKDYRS
PI3Kβ, sequence (P27986 whole entry partner): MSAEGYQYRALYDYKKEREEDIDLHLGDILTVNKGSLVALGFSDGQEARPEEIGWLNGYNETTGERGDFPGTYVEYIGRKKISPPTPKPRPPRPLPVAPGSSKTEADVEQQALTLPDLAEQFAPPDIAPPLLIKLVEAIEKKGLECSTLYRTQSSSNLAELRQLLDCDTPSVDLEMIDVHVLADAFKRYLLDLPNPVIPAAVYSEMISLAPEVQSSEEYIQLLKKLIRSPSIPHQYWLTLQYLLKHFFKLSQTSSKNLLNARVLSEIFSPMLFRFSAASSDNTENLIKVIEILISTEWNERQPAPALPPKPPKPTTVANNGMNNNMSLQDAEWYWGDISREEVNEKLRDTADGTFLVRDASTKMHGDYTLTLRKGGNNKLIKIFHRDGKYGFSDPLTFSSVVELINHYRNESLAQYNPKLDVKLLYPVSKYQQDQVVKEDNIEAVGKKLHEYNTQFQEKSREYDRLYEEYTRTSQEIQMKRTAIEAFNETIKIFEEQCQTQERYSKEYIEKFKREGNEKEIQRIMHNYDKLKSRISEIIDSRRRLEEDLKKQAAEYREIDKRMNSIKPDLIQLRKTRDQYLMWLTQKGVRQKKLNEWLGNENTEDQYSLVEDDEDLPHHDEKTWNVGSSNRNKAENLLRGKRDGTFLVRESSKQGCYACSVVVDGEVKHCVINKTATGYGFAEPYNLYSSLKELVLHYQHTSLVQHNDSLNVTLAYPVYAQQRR

Row | SMILES | IC50
1 | Nc1cc(-c2cc(-c3nnc[nH]3)c3nc(C4COC4)n(-c4ccnc5c(Cl)ccc(F)c45)c3c2)ccn1 [Example 68, 4-[3-(8-chloro-5-fluoroquinolin-4-yl)-2-(oxetan-3-yl)-7-(4H-1,2,4-triazol-3-yl)benzimidazol-5-yl]pyridin-2-amine] | 35 nM
2 | Cc1nc2c(-c3nnc[nH]3)cc(-c3ccnc(C#N)c3)cc2n1-c1ccnc2c(F)ccc(Cl)c12 (single isomer, unassigned) [Example 123, 4-(1-(5-chloro-8-fluoroquinolin-4-yl)-2-methyl-4-(4H-1,2,4-triazol-3-yl)-1H-benzo[d]imidazol-6-yl)picolinonitrile] | 8 nM
3 | Nc1nccc(-c2cc(-c3nnc[nH]3)c3nc(C4CC4)n(-c4ccnc5c(Cl)ccc(F)c45)c3c2)c1F [Example 85, 4-[3-(8-chloro-5-fluoroquinolin-4-yl)-2-cyclopropyl-7-(4H-1,2,4-triazol-3-yl)benzimidazol-5-yl]-3-fluoropyridin-2-amine] | 3 nM
4 | Nc1nccc(-c2cc(-c3nnc[nH]3)c3ncn(-c4ccnc5c(F)ccc(F)c45)c3c2)c1F [Example 102, 4-[3-(5,8-difluoroquinolin-4-yl)-7-(4H-1,2,4-triazol-3-yl)benzimidazol-5-yl]-3-fluoropyridin-2-amine] | 11 nM
5 | CNc1cc(-c2cc(-c3nnc[nH]3)c3nc(C)n(-c4ccnc5c(F)ccc(F)c45)c3c2)c(F)cn1 [Example 82, 4-[3-(5,8-difluoroquinolin-4-yl)-2-methyl-7-(4H-1,2,4-triazol-3-yl)benzimidazol-5-yl]-5-fluoro-N-methylpyridin-2-amine] | 120 nM
6 | Cc1nc2c(-c3nnc[nH]3)cc(-c3ccncc3F)cc2n1-c1ccnc2c(Cl)cccc12 [Example 39, 8-chloro-4-[6-(3-fluoropyridin-4-yl)-2-methyl-4-(4H-1,2,4-triazol-3-yl)benzimidazol-1-yl]quinoline] | 5 nM
7 | Cc1nnc(-c2cc(-c3ccnc(N)c3)cc3c2nc(C)n3-c2ccnc3c(Cl)ccc(F)c23)[nH]1 [Example 50, 4-[3-(8-chloro-5-fluoroquinolin-4-yl)-2-methyl-7-(5-methyl-4H-1,2,4-triazol-3-yl)benzimidazol-5-yl]pyridin-2-amine] | 17 nM
8 | CNc1nccc(-c2cc(-c3nnc[nH]3)c3nc(C)n(-c4ccnc5c(F)ccc(F)c45)c3c2)c1F [Example 77, 4-[3-(5,8-difluoroquinolin-4-yl)-2-methyl-7-(4H-1,2,4-triazol-3-yl)benzimidazol-5-yl]-3-fluoro-N-methylpyridin-2-amine] | 1400 nM
9 | CCc1nc2c(-c3nnc[nH]3)cc(-c3ccnc(N)c3F)cc2n1-c1ccnc2c(F)ccc(F)c12 (single isomer, unassigned) [Example 110, 4-[3-(5,8-difluoroquinolin-4-yl)-2-ethyl-7-(4H-1,2,4-triazol-3-yl)benzimidazol-5-yl]-3-fluoropyridin-2-amine] | 2 nM
10 | Cc1nc2c(C(N)=O)cc(-c3cc(N)ncn3)cc2n1-c1ccnc2c(Cl)cccc12 [Example 21, 6-(6-aminopyrimidin-4-yl)-1-(8-chloroquinolin-4-yl)-2-methylbenzimidazole-4-carboxamide] | 1300 nM
11 | Cc1nc2c(-c3nnc[nH]3)cc(-c3ccnc(C#N)c3)cc2n1-c1ccnc2c(F)ccc(F)c12 [Example 44, 4-[3-(5,8-difluoroquinolin-4-yl)-2-methyl-7-(4H-1,2,4-triazol-3-yl)benzimidazol-5-yl]pyridine-2-carbonitrile] | 4 nM
12 | Cc1nc2c(-c3nnc[nH]3)cc(-c3ccnc(C#N)c3)cc2n1-c1ccnc2c(Cl)ccc(Cl)c12 (single isomer, unassigned) [Example 121, 4-(1-(5,8-dichloroquinolin-4-yl)-2-methyl-4-(4H-1,2,4-triazol-3-yl)-1H-benzo[d]imidazol-6-yl)picolinonitrile] | 1 nM
13 | Cc1nc2c(-c3nnc[nH]3)cc(-c3ccnc(N)c3F)cc2n1-c1ccnc2c(Cl)ccc(F)c12 [Example 83, 4-[3-(8-chloro-5-fluoroquinolin-4-yl)-2-methyl-7-(4H-1,2,4-triazol-3-yl)benzimidazol-5-yl]-3-fluoropyridin-2-amine] | 2 nM
14 | Cc1nc2c(-c3nnc[nH]3)cc(-c3ccnc(C#N)c3)cc2n1-c1ccnc2c(Cl)cccc12 [Example 149, 4-(1-(8-chloroquinolin-4-yl)-2-methyl-4-(4H-1,2,4-triazol-3-yl)-1H-benzo[d]imidazol-6-yl)picolinonitrile] | 4 nM
15 | Cc1nc2c(-c3nnc[nH]3)cc(-c3ccnc(F)c3F)cc2n1-c1ccnc2c(F)ccc(F)c12 [Example 42, 4-[6-(2,3-difluoropyridin-4-yl)-2-methyl-4-(4H-1,2,4-triazol-3-yl)benzimidazol-1-yl]-5,8-difluoroquinoline] | 10 nM
16 | Cc1c(-c2cc(-c3nnc[nH]3)c3nc(C)n(-c4ccnc5c(F)ccc(F)c45)c3c2)ccnc1N [Example 101, 4-[3-(5,8-difluoroquinolin-4-yl)-2-methyl-7-(4H-1,2,4-triazol-3-yl)benzimidazol-5-yl]-3-methylpyridin-2-amine] | 2800 nM
17 | Cc1nc2c(C(N)=O)cc(-c3ccncc3)cc2n1-c1ccnc2c(Cl)cccc12 [Example 13, 1-(8-chloroquinolin-4-yl)-2-methyl-6-pyridin-4-ylbenzimidazole-4-carboxamide] | 15 nM
18 | Fc1nccc(-c2cc(-c3nnc[nH]3)c3ncn(-c4cc(N5CCNCC5)nc5ccccc45)c3c2)c1F [Example 164, 4-(6-(2,3-difluoropyridin-4-yl)-4-(4H-1,2,4-triazol-3-yl)-1H-benzo[d]imidazol-1-yl)-2-(piperazin-1-yl)quinoline] | 10 nM
19 | Cc1cc(-c2cc(C(N)=O)c3nc(C)n(-c4ccnc5c(Cl)cccc45)c3c2)ccn1 [Example 15, 1-(8-chloroquinolin-4-yl)-2-methyl-6-(2-methylpyridin-4-yl)benzimidazole-4-carboxamide] | 150 nM
20 | Cc1nc2c(C(N)=O)cc(-c3ccncc3)cc2n1-c1ccnc2cccc(F)c12 [Example 8, 1-(5-fluoroquinolin-4-yl)-2-methyl-6-pyridin-4-ylbenzimidazole-4-carboxamide] | 82 nM
21 | Cc1nc2c(C(N)=O)cc(-c3ccncc3F)cc2n1-c1ccnc2c(Cl)cccc12 [Example 14, 1-(8-chloroquinolin-4-yl)-6-(3-fluoropyridin-4-yl)-2-methylbenzimidazole-4-carboxamide] | 62 nM
22 | Cc1nc2c(-c3nnc[nH]3)cc(-c3ccnc(C#N)c3)cc2n1-c1ccnc2c(F)cccc12 [Example 148, 4-(1-(8-fluoroquinolin-4-yl)-2-methyl-4-(4H-1,2,4-triazol-3-yl)-1H-benzo[d]imidazol-6-yl)picolinonitrile] | 16 nM
23 | N#Cc1cc(-c2cc(-c3nnc[nH]3)c3ncn(-c4cc(N5CCNCC5)nc5ccccc45)c3c2)ccn1 [Example 167, 4-(1-(2-(piperazin-1-yl)quinolin-4-yl)-4-(4H-1,2,4-triazol-3-yl)-1H-benzo[d]imidazol-6-yl)picolinonitrile] | 10 nM
24 | Cc1cc(-n2c(C)nc3c(-c4nnc[nH]4)cc(-c4ccncc4)cc32)c2ccccc2n1 [Example 34, 2-methyl-4-[2-methyl-6-pyridin-4-yl-4-(4H-1,2,4-triazol-3-yl)benzimidazol-1-yl]quinoline] | 26 nM
